The source of these data is patent publication US4778824A, “Method for suppressing a transplantation immunity and treating an allergic disease and an autoimmune disease” (Zaidan Hojin Biseibutsu Kagaku Kenkyu Kai, priority 1984, dated 1988).

The test system of data set [1] is Skin allograft rejection (SHR to Fischer rats). Briefly: Inhibition of rejection of skin allograft. It is filed as in vivo. The source says: (§1) In the next place, the present inventors conducted a skin graft test with rats. In accordance with the method of Denham et al. (Denham et al., International Archives of Allergy and Applied Immunology, vol. 62, pp. 443-458, 1980), the skin of the tail of SHR rats was peeled and allografted onto Fischer rats. […] The inhibitory action of spergualin on tissue rejections is expected to manifest itself not only in skin transplantation but also in the transplantation of such organs as the kidney, heart, spleen, lung, liver, bone marrow and endocrine organs.
(§2) Skin sections (5×10 mm) were peeled from the tails of SHR rats (female, 10 wk old) and transplanted to Fischer rats (female, 10 wk old) on the back. Varying doses of spergualin were administered intraperitoneally for a consecutive period of 10 or 20 days starting on the day following the transplantation. Complete necrosis of the graft was used as a measure of rejection and the inhibitory action of the compound was evaluated in terms of how long the rejection was postponed. […] The longer the period of administration, the greater the inhibitory action.

Data set [2] deals with bone marrow. Briefly: Bone marrow inhibition in the skin allograft test. Type of data set: in vivo, Fischer rats. The note with it: i.p., 10 or 20 days.
Text: as §1, §2

Data set [3] relates to mice. The following applies: cited from earlier work.

Entries after “also recorded” stand apart in the source; their conditions may differ.

With `N=C(N)NCCCCC(O)CC(=O)NC(O)C(=O)NCCCCNCCCN` (stereo not drawn) [spergualin, Spergualin], the “dose dependence of inhibitory action on skin allograft rejection” value in data set [1] (i.p., 10 or 20 days) is reported as “dose-dependent”. Moreover, in data set [1] (throughout the administration period), the “inhibition of the rejection” value is “Complete inhibition of the rejection”. The “inhibition of the bone marrow” value in data set [2] is “No inhibition of the bone marrow was observed; also recorded: No such side effects as bone marrow inhibition were observed”. For the same compound, the cumulative toxicity entry in data set [3] is given as “No cumulative toxicity was observed”. Moreover, in data set [3] (gradual intravenous administration of 80 mg/kg), the lethality result is recorded as “not lethal”. In addition, the LD50 result in data set [3] (intraperitoneal) was “approximately 150 mg/kg”.
